How the values were obtained:
Parameters in all cases: species or system Severe acute respiratory syndrome coronavirus 2
[1] = Inhibition of SARS-CoV-2 main protease G15S mutant expressed in Escherichia coli BL21 (DE3) using DABCYL-KTSAVLQ1SGFRKM-E(EDANS)-NH2 as substrate preincubated for 10 mins followed by substrate addition and measured after 5 mins by FRET analysis
[2] = Inhibition of SARS-CoV-2 main protease L89F mutant expressed in Escherichia coli BL21 (DE3) using DABCYL-KTSAVLQ1SGFRKM-E(EDANS)-NH2 as substrate preincubated for 10 mins followed by substrate addition and measured after 5 mins by FRET analysis
[3] = Inhibition of SARS-CoV-2 main protease T21I mutant expressed in Escherichia coli BL21 (DE3) using DABCYL-KTSAVLQ1SGFRKM-E(EDANS)-NH2 as substrate preincubated for 10 mins followed by substrate addition and measured after 5 mins by FRET analysis
[4] = Inhibition of SARS-CoV-2 main protease P132H mutant expressed in Escherichia coli BL21 (DE3) using DABCYL-KTSAVLQ1SGFRKM-E(EDANS)-NH2 as substrate preincubated for 10 mins followed by substrate addition and measured after 5 mins by FRET analysis
[5] = Inhibition of SARS-CoV-2 main protease L205V mutant expressed in Escherichia coli BL21 (DE3) using DABCYL-KTSAVLQ1SGFRKM-E(EDANS)-NH2 as substrate preincubated for 10 mins followed by substrate addition and measured after 5 mins by FRET analysis
[6] = Inhibition of SARS-CoV-2 main protease K90R mutant expressed in Escherichia coli BL21 (DE3) using DABCYL-KTSAVLQ1SGFRKM-E(EDANS)-NH2 as substrate preincubated for 10 mins followed by substrate addition and measured after 5 mins by FRET analysis

SMILES: CC(C)(C)[C@H](NC(=O)C(F)(F)F)C(=O)N1C[C@H]2[C@@H]([C@H]1C(=O)N[C@H](C#N)C[C@@H]1CCNC1=O)C2(C)C
- IC50 [1]: 10.3 nM
- IC50 [2]: 10.5 nM
- IC50 [3]: 10.1 nM
- IC50 [4]: 12.2 nM
- IC50 [5]: 10.7 nM
- IC50 [6]: 12.7 nM

From ChEMBL document CHEMBL5143594 (Bioorg Med Chem Lett, 2022)
